The values below are quoted from earlier work in patent publication US12083092B2, “Antiviral 1,3-di-oxo-indene compounds” (Novartis AG, priority 2020, dated 2024).

The structures appear in SMILES notation.

The conditions of series [1]: in vivo, cited from earlier work.
For series [2] the following is noted: in vivo; cited from earlier work.
For series [3] the following is noted: in vivo; cited from earlier work. The source holds these as a separate data set.
The subject of series [4] is 48 rhinovirus types and coxsackievirus A21. B3, enterovirus 70 and echovirus 11. Particulars: coxsackievirus A21, B3, enterovirus 70, echovirus 11; cited from earlier work.

Regarding `CCC(=O)C(CCCCCCOc1ccc(OC)cc1Cl)C(=O)CC` [arildone], the bioavailability entry in series [1] was “low bioavailability”. As to `Cc1cc(CCCCCOc2c(Cl)cc(C3=NCCO3)cc2Cl)on1` [WIN 54954], the metabolization and excretion result in series [2] was “rapid metabolization and excretion”. For the same compound, the side effects result in series [3] was “skin rash”. As for `CCOC(=O)/C=C/[C@H](C[C@@H]1CCNC1=O)NC(=O)[C@@H](CC(=O)[C@@H](NC(=O)c1cc(C)on1)C(C)C)Cc1ccc(F)cc1` [AG 7088], the “effect in the cell culture” value in series [4] is “nanomolar concentration range”. On to `Cc1cc(CCCCCCCOc2ccc(C3=NCCO3)cc2)on1` [disoxaril], for which the metabolization and excretion entry in series [2] was “rapid metabolization and excretion”. Further, the bioavailability entry in series [1] is “low bioavailability”. Take `Cc1cc(CCCOc2c(C)cc(-c3noc(C(F)(F)F)n3)cc2C)on1` [Pleconaril]: the oral bioavailability entry in series [1] (po) is given as “very good oral bioavailability”.
